In the NIST ThermoML archive (doi:10.1016/j.jct.2009.08.002):
Numbers after ± are expanded uncertainties.

Experiment: molar heat capacity at constant pressure; xn = mol fraction of the nth substance listed
Conditions: Liquid, Large sample (1 g) DSC

CCCCCCCC[n+]1ccn(C)c1.F[B-](F)(F)F [1-methyl-3-octylimidazolium tetrafluoroborate] + CC#N
molar heat capacity at constant pressure [J/K/mol]
Conditions	x1 = 0.0359	x1 = 0.1135	x1 = 0.1694	x1 = 0.2341	x1 = 0.3023	x1 = 0.4285	x1 = 0.5437	x1 = 0.6829	x1 = 0.8425	x1 = 1
283.15 K	103.7 ± 1.6	133.5 ± 2.1	155.3 ± 2.4	181 ± 2.8	208.3 ± 3.2	259.1 ± 4	305.8 ± 4.7	362.2 ± 5.6	426.5 ± 6.6	489.8 ± 7.6
288.15 K	104 ± 1.6	133.9 ± 2.1	155.9 ± 2.4	181.7 ± 2.8	209.1 ± 3.2	260.4 ± 4	307.3 ± 4.8	364.1 ± 5.6	428.9 ± 6.6	492.6 ± 7.6
293.15 K	104.4 ± 1.6	134.4 ± 2.1	156.5 ± 2.4	182.4 ± 2.8	210 ± 3.3	261.7 ± 4.1	308.9 ± 4.8	366 ± 5.7	431.3 ± 6.7	495.4 ± 7.7
298.15 K	104.8 ± 1.6	135 ± 2.1	157.1 ± 2.4	183.2 ± 2.8	210.9 ± 3.3	263 ± 4.1	310.5 ± 4.8	368 ± 5.7	433.7 ± 6.7	498.3 ± 7.7
303.15 K	105.2 ± 1.6	135.5 ± 2.1	157.8 ± 2.5	184 ± 2.9	211.9 ± 3.3	264.3 ± 4.1	312.2 ± 4.8	370.1 ± 5.7	436.2 ± 6.8	501.2 ± 7.8
308.15 K	105.6 ± 1.6	136.1 ± 2.1	158.5 ± 2.5	184.9 ± 2.9	212.9 ± 3.3	265.7 ± 4.1	313.9 ± 4.9	372.2 ± 5.8	438.7 ± 6.8	504.1 ± 7.8
313.15 K	106.1 ± 1.7	136.7 ± 2.1	159.2 ± 2.5	185.7 ± 2.9	213.9 ± 3.3	267.1 ± 4.1	315.7 ± 4.9	374.4 ± 5.8	441.3 ± 6.8	507.1 ± 7.9
318.15 K	106.5 ± 1.7	137.4 ± 2.1	159.9 ± 2.5	186.6 ± 2.9	215.1 ± 3.3	268.5 ± 4.2	317.5 ± 4.9	376.7 ± 5.8	443.9 ± 6.9	510.2 ± 7.9
323.15 K	107 ± 1.7	138 ± 2.1	160.7 ± 2.5	187.5 ± 2.9	216.2 ± 3.4	269.9 ± 4.2	319.3 ± 4.9	379 ± 5.9	446.6 ± 6.9	513.3 ± 8

CCCCCCn1cc[n+](C)c1.F[B-](F)(F)F [1-hexyl-3-methylimidazolium tetrafluoroborate] + CC#N
molar heat capacity at constant pressure [J/K/mol]
Conditions	283.15 K	288.15 K	293.15 K	298.15 K	303.15 K	308.15 K	313.15 K	318.15 K	323.15 K
x1 = 0.0648	110.9 ± 1.7	111.2 ± 1.7	111.6 ± 1.7	112.1 ± 1.7	112.5 ± 1.7	113 ± 1.8	113.5 ± 1.8	114 ± 1.8	114.6 ± 1.8
x1 = 0.1342	133.5 ± 2.1	134 ± 2.1	134.5 ± 2.1	135 ± 2.1	135.6 ± 2.1	136.2 ± 2.1	136.8 ± 2.1	137.4 ± 2.1	138.1 ± 2.1
x1 = 0.2127	159.4 ± 2.5	160 ± 2.5	160.7 ± 2.5	161.4 ± 2.5	162.1 ± 2.5	162.9 ± 2.5	163.7 ± 2.5	164.5 ± 2.6	165.3 ± 2.6
x1 = 0.2732	179.6 ± 2.8	180.3 ± 2.8	181.1 ± 2.8	181.8 ± 2.8	182.7 ± 2.8	183.6 ± 2.8	184.5 ± 2.9	185.5 ± 2.9	186.6 ± 2.9
x1 = 0.3828	216.5 ± 3.4	217.5 ± 3.4	218.5 ± 3.4	219.6 ± 3.4	220.7 ± 3.4	221.8 ± 3.4	223 ± 3.5	224.2 ± 3.5	225.5 ± 3.5
x1 = 0.5367	268.5 ± 4.2	269.8 ± 4.2	271.2 ± 4.2	272.6 ± 4.2	274 ± 4.2	275.6 ± 4.3	277.2 ± 4.3	278.8 ± 4.3	280.5 ± 4.3
x1 = 0.7064	326.1 ± 5.1	327.7 ± 5.1	329.4 ± 5.1	331.2 ± 5.1	333.1 ± 5.2	335.1 ± 5.2	337.1 ± 5.2	339.2 ± 5.3	341.4 ± 5.3
x1 = 0.8344	369.2 ± 5.7	371.2 ± 5.8	373.2 ± 5.8	375.3 ± 5.8	377.4 ± 5.8	379.7 ± 5.9	382 ± 5.9	384.5 ± 6	387 ± 6
x1 = 1	425 ± 6.6	427.2 ± 6.6	429.6 ± 6.7	432 ± 6.7	434.6 ± 6.7	437.2 ± 6.8	440 ± 6.8	442.9 ± 6.9	445.8 ± 6.9
